Data on 1 compound can be found in US20260027121A1, “LIGAND ACTING ON ADENOSINE RECEPTORS AND COMPOSITION COMPRISING SAME FOR PREVENTION, ALLEVIATION, OR TREATMENT OF OBESITYS” (FUTURE MEDICINE CO., LTD., priority 2022, published 2026).

The structures appear in SMILES notation.

Experiment [1] concerns HFD-fed mice. Kind of experiment: Immunoblot of BAT and iWAT of treated obese mice. The experiment is classed as in vivo, mouse. The following applies: 1 mg kg-1/day, 10 days. The procedure: Mice fed a normal chow diet (NCD) and a high-fat diet (HFD) were treated with LJ-4378 (LJ, 1 mg kg-1/day) for 10 days. (A) Immunoblot analysis of BAT (n=6, mean±SEM, ** p<0.01, **** p<0.0001). (B) Immunoblot analysis in iWAT. Tubulin was a loading control. (n=6, mean±SEM, * p<0.05, *** p<0.001, **** p<0.0001).
(§1) For a diet-induced obesity model, mice were fed a high-fat diet (HFD)(Research Diets, D12492, protein: 20% kcal, carbohydrate: 20% kcal, and fat: 60% kcal) for 8 weeks. Then, LJ-4378 (1 mg kg-1) was injected into the mice once daily for 10 days.
In the case of Western blots, the primary antibodies used for Western blots are summarized in [Table 2] above. An anti-rabbit horseradish peroxidase antibody (1:3000, Thermo Fisher, 31460) and an anti-mouse horseradish peroxidase antibody (1:3000, Jackson, 115-035-174) were used as secondary antibodies. All antibodies were diluted in a blocking buffer (5% skimmed milk or 5% bovine serum albumin in TBST). Western blot images were acquired using a Fusion Solo chemiluminescence imaging system (Vilber Lourmat) and analyzed with Evolution Capt software (version 17.03). NIH ImageJ software was used for quantification.
(In general: Immunoblotting shows a protein as a band on a membrane.)

The next experiment addresses T1, A3AR (Homo sapiens, UniProt P0DMS8).
T1 sequence (P0DMS8 1-318): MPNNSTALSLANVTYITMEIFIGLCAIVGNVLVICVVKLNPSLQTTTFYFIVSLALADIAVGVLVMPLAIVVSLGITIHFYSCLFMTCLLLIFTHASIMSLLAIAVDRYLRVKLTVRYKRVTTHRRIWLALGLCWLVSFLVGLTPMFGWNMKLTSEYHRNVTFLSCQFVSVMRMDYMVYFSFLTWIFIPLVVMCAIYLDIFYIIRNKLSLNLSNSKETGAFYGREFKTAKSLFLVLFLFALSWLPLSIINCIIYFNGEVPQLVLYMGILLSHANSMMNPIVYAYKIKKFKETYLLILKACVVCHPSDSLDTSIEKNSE
Kind of experiment: cAMP assay at A3AR using full agonist Cl-IB-MECA. The experiment is classed as cell-based. The note with it: FIG. 1C.

Experiment [2] deals with HFD-fed mice. Kind of experiment: Diet-induced obesity model (body weight, body composition, tissue weight, H&E). The class given is in vivo, mouse. The note with it: 1 mg kg-1 once daily, 10 days. As to the method: as §1
(§2) Indirect calorimetry was performed using a PhenoMaster (TSE Systems) to measure expenditure (EE), VO2, VCO2, activity, and food intake. Body components were measured by nuclear magnetic resonance scanning Echo MRI-700 (Echo Medical Systems).
Mice fed a HFD were used as a diet-induced obesity model. Body weight changes were monitored during treatment, and fat and body components of the mice were measured after treatment.
For histological analysis, adipose tissue was fixed in 10% formalin and then embedded in a paraffin block. Paraffin sections were stained with hematoxylin/eosin (H&E).

The next experiment has as its system CIDEA reporter mice. Put plainly: qPCR of brown adipocyte markers in brown adipose tissue. The class given is in vivo, mouse. The note with it: BAT, 1 mg kg-1/day, 10 days. As to the method:
Mice were treated with vehicle (CTL), LJ-4378 (LJ, 1 mg kg-1/day), […] (CGS21680, 1 mg kg-1/day), or A3 antagonist (LJ-4433, 1 mg kg-1/day) for 10 days. (A-B) Representative bioluminescence in dorsal and lateral positions (n=3, mean±SEM, ** p<0.01, **** p<0.0001). (C) Representative ex vivo fluorescence image and quantification of fluorescence intensity of BAT and iWAT (n=3, mean±SEM, ** p<0.01, **** p<0.0001). (D) qPCR analysis of UCP1 and CIDEAM RNA expression levels of brown adipose tissue (BAT) (n=3, mean±SEM, * p<0.05, ** p<0.01, *** p<0.001).
qPCR analysis was performed to investigate the adenosine receptor expression levels in brown adipocytes differentiated from immortalized brown adipocyte precursor cells. Primers used for the qPCR analysis are listed in the following [Table 3].

A further experiment deals with C57BL/6 male mice. Kind of experiment: Indirect calorimetry (PhenoMaster). The experiment is classed as in vivo, mouse. The note with it: 1 mg·kg-1day-1 intraperitoneally, 10 days. As to the method:
6-week-old C57BL/6 male mice and CIDEA reporter mice were used according to the approved protocols by Institutional Animal Care and Use Committees of Seoul National University (SNU-201107-1, SNU-201221-3) for in vivo experiments. The mice were housed under a 12 h-light/12 h-dark cycle condition with free access to a normal chow diet (NCD, Purina Lab, 38057, protein: 24.52% calories, carbohydrate: 63.07% calories, and fat: 12.41% calories) and water at 22±1° C. The mice were treated intraperitoneally with LJ-4378 (1 mg·kg-1day-1) dissolved in 0.2% DMSO (diluted in PBS) for 10 days.
as §2

The test system of the next experiment is BAT, iWAT, and gWAT. Put plainly: TTC staining of adipose tissue (ex vivo electron transport activity). The experiment is classed as in vivo, mouse. The following applies: mice, 1 mg·kg-1day-1 intraperitoneally, 10 days.
For the next experiment, the system named is brown adipocytes. Put plainly: MitoTracker staining. The experiment is classed as cell-based, mouse. The following applies: 0.1 μM, FIG. 4B. As to the method: The cells were exposed to MitoTracker™ Red CMXRos (1:3000, Invitrogen, M7512) at 37° C. for 15 minutes to stain mitochondria, and then fixed in 4% paraformaldehyde (PFA, Sigma, 158127). Images were acquired with an LSM800 confocal microscope (Zeiss, Germany) and analyzed with Zen software (version 3.0).

Procedure for BAT, iWAT, and gWAT: 6-week-old C57BL/6 male mice and CIDEA reporter mice were used according to the approved protocols by Institutional Animal Care and Use Committees of Seoul National University (SNU-201107-1, SNU-201221-3) for in vivo experiments. The mice were housed under a 12 h-light/12 h-dark cycle condition with free access to a normal chow diet (NCD, Purina Lab, 38057, protein: 24.52% calories, carbohydrate: 63.07% calories, and fat: 12.41% calories) and water at 22±1° C. […] Ex vivo electron transport activity associated with mitochondrial oxidative phosphorylation was evaluated by monitoring the reduction of 0.1% triphenyl tetrazolium chloride (TTC, Sigma, T8877).

Turning to `CCCCC#Cc1nc(N)c2ncn([C@@H]3SC[C@@H](O)[C@H]3O)c2n1` [LJ-4378, 2-(6-amino-2-(hex-1-yn-1-yl)-9H-purin-9-yl)tetrahydrothiophene-3,4-diol], in the experiment with HFD-fed mice [1], the “COXIV upregulation in BAT” value was 5.91±0.23 fold, the “COXIV upregulation in iWAT” value worked out at 1.24±0.04 fold, the “P-CREB upregulation in BAT” value turned out to be 1.54±0.03 fold and the “P-CREB upregulation in iWAT” value stood at 3.86±0.12 fold. Further, in the experiment on HFD-fed mice [1], the “P-HSL upregulation in BAT” value was 2.31±0.18 fold, the “P-HSL upregulation in iWAT” value was found to be 1.72±0.04 fold, the “UCP1 upregulation in BAT” value was found to be 1.33±0.06 fold and the “UCP1 upregulation in iWAT” value came to 3.34±0.36 fold. The “KB value at A3AR” value on A3AR is reported as “nM level”. Also, in the experiment on HFD-fed mice [2], the “reduction in body weight” value is listed as 8.24%, the “reduction in fat mass” value is recorded as 24.18%, the “reduction in weight of gWAT” value is on record as 18.6% and the “reduction in weight of iWAT” value stood at 30.1%. For the same compound, in the experiment on CIDEA reporter mice, the “Cidea mRNA level, fold increase” value is listed as 1.72±0.06 fold and the “Ucp1 mRNA level, fold increase” value was 2.13±0.21 fold. In the experiment on C57BL/6 male mice, the “increase of energy expenditure” value worked out at 17.0% and the “increase of oxygen consumption” value amounted to 17.8%. Moreover, in the experiment with BAT, iWAT, and gWAT, the “mitochondrial activity (TTC staining), fold increase in BAT” value is reported as 2.86±0.24 fold; the “mitochondrial activity (TTC staining), fold increase in gWAT” value came out at 1.72±0.16 fold; the “mitochondrial activity (TTC staining), fold increase in iWAT” value worked out at 2.07±0.17 fold. Besides, in the experiment on brown adipocytes, the “mitochondrial membrane potential (MitoTracker staining), fold increase” value was found to be 2.12±0.06 fold.
